Laboratory results taken from US20260078398A1, “PLANTS GENETICALLY ENGINEERED FOR INCREASED WATER USE EFFICIENCY AND CARBON INTAKE AND METHODS FOR MAKING AND USING THEM” (The Regents of the University of California, priority 2022, published 2026).

Tests used:
S-type anion channels = conditions: proposed secondary HCO3- response mechanism (ref. 10); cited from earlier work
[1] = system: MPK4/12, HT1 and CBC1 recombinant proteins; assay: in vitro phosphorylation assay: NaHCO3-dependent down-regulation of HT1-mediated CBC1 phosphorylation; format: biochemical, Arabidopsis
[2] = molecular target: T1, MPK4/12, HT1 and CBC1 recombinant proteins (Arabidopsis thaliana, UniProt Q2MHE4); assay: as above; format: biochemical; conditions: HT1 and CBC1 only, no MPK4/MPK12; 20 mM NaHCO3, 30 min
T1 construct: His; made in house
T1 sequence (Q2MHE4 whole entry): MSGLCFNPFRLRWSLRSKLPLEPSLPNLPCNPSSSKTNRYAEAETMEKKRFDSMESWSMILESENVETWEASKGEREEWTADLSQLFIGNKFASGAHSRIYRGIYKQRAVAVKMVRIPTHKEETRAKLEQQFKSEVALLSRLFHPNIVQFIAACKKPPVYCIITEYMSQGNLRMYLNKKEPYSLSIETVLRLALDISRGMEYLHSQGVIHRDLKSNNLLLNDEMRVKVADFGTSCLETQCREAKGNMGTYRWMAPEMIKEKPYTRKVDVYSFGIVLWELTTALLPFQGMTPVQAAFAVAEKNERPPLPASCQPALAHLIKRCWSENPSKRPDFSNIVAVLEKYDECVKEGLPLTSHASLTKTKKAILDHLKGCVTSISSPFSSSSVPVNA

[3] = molecular target: T2, MPK4/12, HT1 and CBC1 recombinant proteins (Arabidopsis thaliana, UniProt Q2MHE4+Q39024); assay: as above; format: biochemical
T2 construct: His; made in house
T2 sequence (Q39024 whole entry): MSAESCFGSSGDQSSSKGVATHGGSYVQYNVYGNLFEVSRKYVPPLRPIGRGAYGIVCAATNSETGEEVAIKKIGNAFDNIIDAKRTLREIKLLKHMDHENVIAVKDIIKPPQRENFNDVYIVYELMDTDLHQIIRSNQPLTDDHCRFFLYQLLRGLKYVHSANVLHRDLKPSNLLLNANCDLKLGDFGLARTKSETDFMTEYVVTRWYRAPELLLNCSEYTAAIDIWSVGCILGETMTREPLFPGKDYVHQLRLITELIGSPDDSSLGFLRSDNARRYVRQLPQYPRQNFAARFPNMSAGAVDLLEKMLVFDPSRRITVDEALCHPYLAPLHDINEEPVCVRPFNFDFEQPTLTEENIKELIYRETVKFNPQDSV
T2 sequence (Q2MHE4 whole entry): as the sequence (Q2MHE4 whole entry) above

MPK4 and HT1 = molecular target: T3, MPK4 and HT1 (Arabidopsis thaliana, UniProt Q2MHE4+Q39024); assay: in vitro pull-down assay, His-HT1 with GST-MPK4; format: binding; conditions: 20 mM NaHCO3 in all buffers
T3 construct: made in house
T3 sequence (Q39024 whole entry): as the sequence (Q39024 whole entry) above
T3 sequence (Q2MHE4 whole entry): as the sequence (Q2MHE4 whole entry) above

O=C(O)O [NaHCO3]
modulation of activity of S-type anion channels by HCO3- (S-type anion channels): ~20% | effect of NaHCO3 on CBC1 and histone phosphorylation ([1]; MPK4 or MPK12 added to HT1 and CBC1, 20 mM NaHCO3, 30 min): inhibited both CBC1 phosphorylation and histone phosphorylation | kinase activities of CBC1, HT1 or MPK4 exposed to NaHCO3 individually ([1]; each kinase alone, 20 mM NaHCO3, 30 min): not affected | CBC1 activity in response to NaHCO3 ([1]; only MPK12 and CBC1 in the reaction, no HT1, 20 mM NaHCO3): not affected | HT1 kinase activity in response to NaHCO3 ([1]; only in the presence of MPK12, 20 mM NaHCO3): inhibited | effect of NaHCO3 on CBC1 phosphorylation level [2]: no clear effect | EC50 [3]: ~7.1 mM | effect of NaHCO3 on CBC1 phosphorylation at different pH ([3]; MPK4 and HT1 present, high pH conditions at ≥pH 7.5 (buffers pH 6.5 to 8.5)): inhibited CBC1 phosphorylation | effect of HCO3- on binding between MPK4 and HT1 (MPK4 and HT1): greatly enhanced the binding
